This note sets out measurements from publication PMC9017349, “Spiropyrimidinetriones: a Class of DNA Gyrase Inhibitors with Activity against Mycobacterium tuberculosis and without Cross-Resistance to Fluoroquinolones” (Antimicrobial Agents and Chemotherapy, 2022).

The test system of test [1] is M. tuberculosis H37Rv. Description: MIC against M. tuberculosis H37Rv in 7H9 medium with various supplements. The conditions noted are these: for MIC: Mycobacterium tuberculosis, H37RV. Type of test: cell-based, Mycobacterium tuberculosis.
In test [2] the test system is H37Rv (RecA). The format is cell-based, Mycobacterium tuberculosis.
Test [3] deals with recA promoter reporter in M. tuberculosis H37Rv. The format is cell-based, Mycobacterium tuberculosis. Conditions: over 7 days.
The subject of test [4] is iniB promoter reporter in M. tuberculosis H37Rv. The format is cell-based, Mycobacterium tuberculosis.
In test [5] the test system is M. tuberculosis H37Rv. Kind of test: microbe, parasite or virus in culture. Type of test: cell-based.
For test [6], the system named is M. tuberculosis H37Rv. Kind of test: microbe, parasite or virus in culture. Type of test: cell-based. The conditions noted are these: Mycobacterium tuberculosis, read-out: MIC90, H37Rv.
Setting [7] is: read-out: MIC, DPPC/Chol/BSA/TX.

In brackets after ≈: the same amount, converted by molar mass.

For `C[C@@H]1CN(c2noc3c(F)c4c(cc23)CC2(C(=O)NC(=O)NC2=O)[C@H]2[C@H](C)O[C@H](C)CN42)C(=O)O1` [Compound 5], the “fold more active than zoliflodacin against M. tuberculosis” value in test [1] (H37Rv, across the MIC media) is recorded as “about 2 fold”. The MIC in test [1] (read-out: MIC, ADC/GLU/TW) was found to be 2 µM (≈ 0.975 µg/mL); in test [1] (read-out: MIC, DPPC/CAS/TX), 12 µM (≈ 5.85 µg/mL); in test [1] (setting [7]), 6.2 µM (≈ 3.02 µg/mL); in test [1] (read-out: MIC, GLU/BSA/TX), 9.4 µM (≈ 4.58 µg/mL); in test [1] (read-out: MIC, GLU/CAS/TX) it was 4.7 µM (≈ 2.29 µg/mL).

Take `COCC1[C@@H](C)OC(=O)N1c1noc2c(F)c3c(cc12)CC1(C(=O)NC(=O)NC1=O)[C@H]1[C@H](C)O[C@H](C)CN31` (stereo partly drawn) [Compound 11]: the MIC in test [1] (read-out: MIC, ADC/GLU/TW) was 31 µM (≈ 16.5 µg/mL); in test [1] (read-out: MIC, DPPC/CAS/TX), > 50 µM; in test [1] (setting [7]), > 50 µM; in test [1] (read-out: MIC, GLU/BSA/TX), > 50 µM; in test [1] (read-out: MIC, GLU/CAS/TX), > 50 µM.

In the case of `CC1CN2c3c(cc4c(N5CC(c6ccccn6)OC5=O)noc4c3F)CC3(C(=O)NC(=O)NC3=O)C2C(C)O1` (stereo not drawn) [Compound 12], the MIC is > 50 µM in test [1] (read-out: MIC, ADC/GLU/TW); > 50 µM in test [1] (read-out: MIC, DPPC/CAS/TX); > 50 µM in test [1] (setting [7]); > 50 µM in test [1] (read-out: MIC, GLU/BSA/TX); > 50 µM in test [1] (read-out: MIC, GLU/CAS/TX).

On to `CNc1ncnn1-c1noc2c(F)c3c(cc12)CC1(C(=O)NC(=O)NC1=O)[C@H]1[C@H](C)O[C@H](C)CN31` [Compound 17], for which the MIC in test [1] (read-out: MIC, ADC/GLU/TW) came out at 0.9 µM (≈ 0.436 µg/mL); in test [1] (read-out: MIC, DPPC/CAS/TX), 6.2 µM (≈ 3 µg/mL); in test [1] (setting [7]), 6.2 µM (≈ 3 µg/mL); in test [1] (read-out: MIC, GLU/BSA/TX), 9.4 µM (≈ 4.55 µg/mL); in test [1] (read-out: MIC, GLU/CAS/TX) it was 3.1 µM (≈ 1.5 µg/mL).

For the compound `CC1CN2c3c(cc4c(N5C(=O)OC6COCCC65)noc4c3F)CC3(C(=O)NC(=O)NC3=O)C2C(C)O1` (stereo not drawn) [Compound 10], the MIC in test [1] (read-out: MIC, ADC/GLU/TW) is 3.9 µM (≈ 2.06 µg/mL); in test [1] (read-out: MIC, DPPC/CAS/TX) it was 12 µM (≈ 6.35 µg/mL); in test [1] (setting [7]), 12 µM (≈ 6.35 µg/mL); in test [1] (read-out: MIC, GLU/BSA/TX), 12 µM (≈ 6.35 µg/mL); in test [1] (read-out: MIC, GLU/CAS/TX) it was 6.2 µM (≈ 3.28 µg/mL).

As for `C[C@@H]1CN2c3c(cc4c(N5CCN(C)C5=O)noc4c3F)CC3(C(=O)NC(=O)NC3=O)[C@H]2[C@H](C)O1` [Compound 23], the MIC in test [1] (read-out: MIC, ADC/GLU/TW) amounted to 4.3 µM (≈ 2.09 µg/mL); in test [1] (read-out: MIC, DPPC/CAS/TX) it was 37 µM (≈ 18 µg/mL); in test [1] (setting [7]) it was 12 µM (≈ 5.84 µg/mL); in test [1] (read-out: MIC, GLU/BSA/TX) it was 19 µM (≈ 9.24 µg/mL); in test [1] (read-out: MIC, GLU/CAS/TX), 6.2 µM (≈ 3.02 µg/mL).

Take `C[C@@H]1CN2c3c(cc4c(-n5cncn5)noc4c3Cl)CC3(C(=O)NC(=O)NC3=O)[C@H]2[C@H](C)O1` [Compound 18]: the MIC in test [1] (read-out: MIC, ADC/GLU/TW) was 0.49 µM (≈ 0.231 µg/mL); in test [1] (read-out: MIC, DPPC/CAS/TX) it was 3.1 µM (≈ 1.46 µg/mL); in test [1] (setting [7]), 1.6 µM (≈ 0.755 µg/mL); in test [1] (read-out: MIC, GLU/BSA/TX), 1.6 µM (≈ 0.755 µg/mL); in test [1] (read-out: MIC, GLU/CAS/TX), 0.78 µM (≈ 0.368 µg/mL).

Turning to `NNC(=O)c1ccncc1` [Isoniazid, isoniazid], in test [2], the “PrecA-LUX MIC” value is ~ 7 μM. In test [3], the “bioluminescence response in PrecA-LUX assay” value is reported as “did not elicit significant luminescence”. For the same compound, the “bioluminescence response in PiniB-LUX assay” value in test [4] is “strong signal”. Besides, the “MBC relative to MIC” value in test [5] (CARA) is on record as “less than 4 fold”. Also, in test [5] (Mycobacterium tuberculosis, 168 h, H37Rv, 7 days, Middlebrook 7H9 with OADC and glycerol, read-out: MIC (dose-response)), the MIC stood at 4.61 µM (≈ 0.632 µg/mL). Besides, the MBC in test [5] (Mycobacterium tuberculosis, H37RV, 168 h, CARA, transfer to charcoal agar, additional 7 days) came to 3.9 µM (≈ 0.535 µg/mL). Further, the MIC90 in test [6] came to 3.95 µM (≈ 0.542 µg/mL).

`CC1CN2c3c(cc4c(N5CC(CO)OC5=O)noc4c3Cl)CC3(C(=O)NC(=O)NC3=O)C2C(C)O1` (stereo not drawn) [Compound 3]: the MIC in test [1] (read-out: MIC, ADC/GLU/TW) is 2 µM (≈ 1.04 µg/mL); in test [1] (read-out: MIC, DPPC/CAS/TX), 6.2 µM (≈ 3.22 µg/mL); in test [1] (setting [7]), 4.7 µM (≈ 2.44 µg/mL); in test [1] (read-out: MIC, GLU/BSA/TX), 4.7 µM (≈ 2.44 µg/mL); in test [1] (read-out: MIC, GLU/CAS/TX), 2.3 µM (≈ 1.2 µg/mL).

Take `CC1CN2c3c(cc4c(N5C(=O)OCC5CCCO)noc4c3Cl)CC3(C(=O)NC(=O)NC3=O)C2C(C)O1` (stereo not drawn) [Compound 4]: the MIC was found to be 4.8 µM (≈ 2.63 µg/mL) in test [1] (read-out: MIC, ADC/GLU/TW); 12 µM (≈ 6.58 µg/mL) in test [1] (read-out: MIC, DPPC/CAS/TX); 12 µM (≈ 6.58 µg/mL) in test [1] (setting [7]); 12 µM (≈ 6.58 µg/mL) in test [1] (read-out: MIC, GLU/BSA/TX); 9.4 µM (≈ 5.15 µg/mL) in test [1] (read-out: MIC, GLU/CAS/TX).

Consider `C[C@@H]1CN2c3c(cc4c(C5=N[C@H](C)[C@@H](C)N5)noc4c3F)CC3(C(=O)NC(=O)NC3=O)[C@H]2[C@H](C)O1` [Compound 20], for which the MIC in test [1] (read-out: MIC, ADC/GLU/TW) stood at 5.5 µM (≈ 2.66 µg/mL); in test [1] (read-out: MIC, DPPC/CAS/TX), 6.2 µM (≈ 3 µg/mL); in test [1] (setting [7]) it was 6.2 µM (≈ 3 µg/mL); in test [1] (read-out: MIC, GLU/BSA/TX), 4.7 µM (≈ 2.28 µg/mL); in test [1] (read-out: MIC, GLU/CAS/TX), 3.1 µM (≈ 1.5 µg/mL).

As for `C[C@H]1COc2c(N3CCN(C)CC3)c(F)cc3c(=O)c(C(=O)O)cn1c23` [Levofloxacin], the MIC90 in test [6] was found to be 0.49 µM (≈ 0.177 µg/mL).

In the case of `C[C@@H]1CN2c3c(cc4c(-n5ncnc5N5CCOC[C@H]5C)noc4c3F)CC3(C(=O)NC(=O)NC3=O)[C@H]2[C@H](C)O1` [Compound 19], the MIC in test [1] (read-out: MIC, ADC/GLU/TW) is 16 µM (≈ 8.87 µg/mL); in test [1] (read-out: MIC, DPPC/CAS/TX), > 50 µM; in test [1] (setting [7]) it was > 50 µM; in test [1] (read-out: MIC, GLU/BSA/TX) it was > 50 µM; in test [1] (read-out: MIC, GLU/CAS/TX), > 50 µM.

With `CC1CN2c3c(cc4c(N5C(=O)OC6COCC65)noc4c3F)CC3(C(=O)NC(=O)NC3=O)C2C(C)O1` (stereo not drawn) [Compound 6], the MIC is 0.98 µM (≈ 0.505 µg/mL) in test [1] (read-out: MIC, ADC/GLU/TW); 4.7 µM (≈ 2.42 µg/mL) in test [1] (read-out: MIC, DPPC/CAS/TX); 2.3 µM (≈ 1.19 µg/mL) in test [1] (setting [7]); 3.1 µM (≈ 1.6 µg/mL) in test [1] (read-out: MIC, GLU/BSA/TX); 1.6 µM (≈ 0.825 µg/mL) in test [1] (read-out: MIC, GLU/CAS/TX).
